Measurements from article PMC12294420, “Phytochemical Characterization, Bioactivities, and Nanoparticle-Based Topical Gel Formulation Development from Four Mitragyna speciosa Varieties” (Gels, 2025).

Columns and labels:
[1] = molecular target: T1, porcine pancreatic elastase (Sus scrofa, UniProt P00772); test: Suc-Ala-Ala-Ala-pNA hydrolysis, […] nm kinetic; assay type: biochemical; settings: read-out: % inhibition at 1 mg/mL
T1 construct: gene CELA1; commercial native pancreatic enzyme (Sigma-Aldrich)

[2] = molecular target: T2, bovine testis hyaluronidase (Bos taurus, UniProt Q2YDK3); test: turbidimetric hyaluronic acid degradation assay, […] nm; assay type: biochemical; settings: read-out: % inhibition at 1 mg/mL
T2 construct: gene SPAM1; commercial native testis preparation (Sigma-Aldrich)
T2 sequence (Q2YDK3 36-553): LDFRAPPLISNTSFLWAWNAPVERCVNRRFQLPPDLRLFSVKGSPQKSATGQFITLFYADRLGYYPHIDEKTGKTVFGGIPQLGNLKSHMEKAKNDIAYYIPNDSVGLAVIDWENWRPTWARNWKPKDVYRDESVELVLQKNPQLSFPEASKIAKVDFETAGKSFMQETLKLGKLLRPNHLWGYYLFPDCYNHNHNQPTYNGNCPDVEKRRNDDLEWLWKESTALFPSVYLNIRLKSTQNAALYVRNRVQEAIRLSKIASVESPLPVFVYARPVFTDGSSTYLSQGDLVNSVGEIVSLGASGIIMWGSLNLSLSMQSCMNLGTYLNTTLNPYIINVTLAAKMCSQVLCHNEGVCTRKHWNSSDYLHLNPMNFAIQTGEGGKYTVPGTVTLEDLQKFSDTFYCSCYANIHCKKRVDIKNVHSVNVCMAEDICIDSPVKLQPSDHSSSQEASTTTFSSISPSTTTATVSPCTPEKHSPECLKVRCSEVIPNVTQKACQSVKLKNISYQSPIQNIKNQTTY

T1 sequence (P00772 27-266): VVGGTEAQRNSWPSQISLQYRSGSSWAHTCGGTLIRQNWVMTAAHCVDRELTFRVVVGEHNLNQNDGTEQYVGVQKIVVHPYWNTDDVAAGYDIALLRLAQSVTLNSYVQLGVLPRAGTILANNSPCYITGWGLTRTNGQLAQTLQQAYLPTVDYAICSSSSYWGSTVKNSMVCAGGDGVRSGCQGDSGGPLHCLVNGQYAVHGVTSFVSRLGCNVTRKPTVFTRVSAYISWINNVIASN

CC[C@@H]1CN2CCc3c([nH]c4cccc(OC)c34)[C@@H]2C[C@@H]1/C(=C\OC)C(=O)OC [mitragynine]
inhibition at 1000 µg/mL [1]: 54.5 ± 1.5% | inhibition at 1000 µg/mL [2]: 83.3 ± 1.35%
